From patent publication US9834521B2, “Choline kinase inhibitors” (ARIAD Pharmaceuticals, Inc., priority 2013, dated 2017)
Where two headings read alike, the source gives them in different places.

Tests used:
[1] = biological target: T1, truncated form of human Choline kinase α1 that includes residues 75-457 (Homo sapiens, UniProt P35790); experiment: Kinase Assay, coupled (ATP regeneration) LDH/PK assay, NADH absorbance; assay type: biochemical; conditions: read-out: IC50
T1 construct: made in house
T1 sequence (P35790 75-457): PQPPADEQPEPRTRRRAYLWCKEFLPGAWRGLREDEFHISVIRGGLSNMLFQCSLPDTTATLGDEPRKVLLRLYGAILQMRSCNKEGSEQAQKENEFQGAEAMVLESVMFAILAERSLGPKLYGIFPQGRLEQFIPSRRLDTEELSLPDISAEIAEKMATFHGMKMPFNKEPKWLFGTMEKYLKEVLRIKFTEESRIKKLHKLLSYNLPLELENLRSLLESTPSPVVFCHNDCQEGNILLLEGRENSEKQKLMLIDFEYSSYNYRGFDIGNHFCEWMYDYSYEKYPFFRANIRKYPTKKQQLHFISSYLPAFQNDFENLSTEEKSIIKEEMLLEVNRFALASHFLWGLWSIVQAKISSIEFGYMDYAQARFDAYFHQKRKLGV
Description: Absorbance of NADH (340 nm) was measured over 30 min using a SpectraMax M5 (Molecular Devices). Initial reaction velocity (ΔA340/Δt) was calculated and plotted as a function of inhibitor concentration in a 2-fold dilution series. IC50 values were obtained by fitting the relative velocities to a dose-response model.

[2] = biological target: T2, ChoKα protein (Homo sapiens, UniProt P35790); experiment: Binding affinity by surface plasmon resonance (SensiQ Pioneer, FastStep); conditions: SPR, 1:1 binding model, upper concentration 500 nM; read-out: Kd
T2 construct: made in house
T2 sequence (P35790 75-457): as above
Description: KD may be measured using surface plasmon resonance (BIAcore®) technology, see, e.g., Panayotou et al, Mol. Cell. […] ChoKα protein was immobilized by standard amine coupling methods on a COOH5 sensor chip installed in a SensiQ Pioneer system. Sensograms were measured using the FastStep™ screen method with an upper concentration of 500 nM. Kinetics and affinity were obtained from fits using a 1:1 binding model.

[3] = Examples not designated with an asterisk, footnote prints version 1 of the Kinase Assay
[4] = Examples designated with an asterisk (*): version 1 of the Kinase Assay, 200 nM enzyme

SMILES | IC50 [1, 3] [µM] | Kd [2] [µM] | IC50 [1, 4] [µM]
CN1CCCN(Cc2ccc(-c3ccc(CN4CCCC(O)C4)cc3)c(C#N)c2)CC1 (centres unmarked) [Example 1, 4′-((3-hydroxypiperidin-1-yl)methyl)-4-((4-methyl-1,4-diazepan-1-yl)methyl)-[1,1′-biphenyl]-2-carbonitrile] | < 0.1 | < 0.1 | 
CN1CCCN(Cc2ccc(-c3ccc(CN4CCC(O)C4)cc3)c(C#N)c2)CC1 (centres unmarked) [Example 2, 4′-((3-hydroxypyrrolidin-1-yl)methyl)-4-((4-methyl-1,4-diazepan-1-yl)methyl)-[1,1′-biphenyl]-2-carbonitrile] | < 0.1 | < 0.05 | 
CN1CCCN(Cc2ccc(-c3ccc(CN4CCC(CO)C4)cc3)c(C#N)c2)CC1 (centres unmarked) [Example 5, 4′-((3-(hydroxymethyl)pyrrolidin-1-yl)methyl)-4-((4-methyl-1,4-diazepan-1-yl)methyl)-[1,1′-biphenyl]-2-carbonitrile] | < 0.2 | < 0.2 | 
CN1CCCN(Cc2ccc(-c3ccc(CN4CCN(CCO)CC4)cc3)c(C#N)c2)CC1 [Example 6, 4′-((4-(2-hydroxyethyl)piperazin-1-yl)methyl)-4-((4-methyl-1,4-diazepan-1-yl)methyl)-[1,1′-biphenyl]-2-carbonitrile] | < 0.2 | < 0.1 | 
CN1CCCN(Cc2ccc(-c3ccc(CN4CCNC(=O)C4)cc3)c(C#N)c2)CC1 [Example 7, 4-((4-methyl-1,4-diazepan-1-yl)methyl)-4′-((3-oxopiperazin-1-yl)methyl)-[1,1′-biphenyl]-2-carbonitrile] | < 0.2 | < 60 | 
CN1CCCN(Cc2ccc(-c3ccc(CN(C)CCO)cc3)c(C#N)c2)CC1 [Example 8, 4′-(((2-hydroxyethyl)(methyl)amino)methyl)-4-((4-methyl-1,4-diazepan-1-yl)methyl)-[1,1′-biphenyl]-2-carbonitrile] | < 0.1 | < 0.05 | 
CN1CCCN(Cc2ccc(-c3ccc(CN4CCOCC4)cc3)c(C#N)c2)CC1 [Example 9, 4-((4-methyl-1,4-diazepan-1-yl)methyl)-4′-(morpholinomethyl)-[1,1′-biphenyl]-2-carbonitrile] | < 0.2 | < 0.1 | 
CN1CCCN(Cc2ccc(-c3ccc(CN4CCN(C)CC4)cc3)c(C#N)c2)CC1 [Example 11, 4-((4-methyl-1,4-diazepan-1-yl)methyl)-4′-((4-methylpiperazin-1-yl)methyl)-[1,1′-biphenyl]-2-carbonitrile] | < 0.2 | < 0.2 | 
CCN(CC)C1CCN(Cc2ccc(-c3ccc(CN4CCCN(C)CC4)cc3C#N)cc2)CC1 [Example 15, 4′-((4-(diethylamino)piperidin-1-yl)methyl)-4-((4-methyl-1,4-diazepan-1-yl)methyl)-[1,1′-biphenyl]-2-carbonitrile] | < 0.1 | < 0.05 | 
CN1CCCN(Cc2ccc(-c3ccc(CN)cc3)c(C#N)c2)CC1 [Example 16, 4′-(aminomethyl)-4-((4-methyl-1,4-diazepan-1-yl)methyl)-[1,1′-biphenyl]-2-carbonitrile] | < 0.2 | < 0.2 | 
CN1CCCN(Cc2ccc(-c3ccc(C(=O)N4CCC(CO)C4)cc3)c(C#N)c2)CC1 (centres unmarked) [Example 22, 4′-(3-(hydroxymethyl)pyrrolidine-1-carbonyl)-4-((4-methyl-1,4-diazepan-1-yl)methyl)-[1,1′-biphenyl]-2-carbonitrile] | < 0.2 | < 0.2 | 
CCN(CC)C(=O)c1ccc(-c2ccc(CN3CCCN(C)CC3)cc2C#N)cc1 [Example 27, 2′-cyano-N,N-diethyl-4′-((4-methyl-1,4-diazepan-1-yl)methyl)-[1,1′-biphenyl]-4-carboxamide] | < 0.2 | < 0.2 | 
CN1CCCN(Cc2ccc(-c3cncc(N)c3)c(C#N)c2)CC1 [Example 124, 2-(5-aminopyridin-3-yl)-5-((4-methyl-1,4-diazepan-1-yl)methyl)benzonitrile] | < 50 |  | 
CN1CCCN(Cc2ccc(-c3cccc4ccccc34)c(C#N)c2)CC1 [Example 125, 5-((4-methyl-1,4-diazepan-1-yl)methyl)-2-(naphthalen-1-yl)benzonitrile] | < 50 |  | 
CN1CCCN(Cc2ccc(-c3ccc4ccccc4c3)c(C#N)c2)CC1 [Example 126, 5-((4-methyl-1,4-diazepan-1-yl)methyl)-2-(naphthalen-2-yl)benzonitrile] | < 50 |  | 
CN1CCCN(Cc2ccc(-c3ccc(CC(=O)O)cc3)c(C#N)c2)CC1 [Example 127, 2-(2′-cyano-4′-((4-methyl-1,4-diazepan-1-yl)methyl)-[1,1′-biphenyl]-4-yl)acetic acid] | < 50 |  | 
CN1CCCN(Cc2ccc(-c3ccc(-c4nnn[nH]4)cc3)cc2)CC1 [Example 129, 1-((4′-(1H-tetrazol-5-yl)-[1,1′-biphenyl]-4-yl)methyl)-4-methyl-1,4-diazepane] | < 50 |  | 
CCOC(=O)Cc1ccc(-c2ccc(CN3CCCN(C)CC3)cc2)cc1 [Example 130, ethyl 2-(4′-((4-methyl-1,4-diazepan-1-yl)methyl)-[1,1′-biphenyl]-4-yl)acetate] | < 50 |  | 
CN1CCCN(Cc2ccc(-c3ccc(C(F)(F)F)cc3CO)cc2)CC1 [Example 131, (4′-((4-methyl-1,4-diazepan-1-yl)methyl)-4-(trifluoromethyl)-[1,1′-biphenyl]-2-yl)methanol] | < 50 |  | 
CN1CCCN(Cc2ccc(-c3ccc(CCC(=O)O)cc3)cc2)CC1 [Example 132, 3-(4′-((4-methyl-1,4-diazepan-1-yl)methyl)-[1,1′-biphenyl]-4-yl)propanoic acid] | < 50 |  | 
CN1CCCN(Cc2ccc(-c3ccccc3C(N)=O)cc2)CC1 [Example 133, 4′-((4-methyl-1,4-diazepan-1-yl)methyl)-[1,1′-biphenyl]-2-carboxamide] | < 50 |  | 
CN1CCCN(Cc2ccc(-c3ccc(F)cc3)cc2)CC1 [Example 135, 1-((4′-fluoro-[1,1′-biphenyl]-4-yl)methyl)-4-methyl-1,4-diazepane] |  |  | < 50
CN1CCCN(Cc2ccc(-c3cccc4ccccc34)cc2)CC1 [Example 136, 1-methyl-4-(4-(naphthalen-1-yl)benzyl)-1,4-diazepane] |  |  | < 50
CN1CCCN(Cc2ccc(-c3ccccn3)cc2)CC1 [Example 141, 1-methyl-4-(4-(pyridin-2-yl)benzyl)-1,4-diazepane] |  |  | < 50
CN1CCCN(Cc2ccc(Cn3cncn3)cc2)CC1 [Example 143, 1-(4-((1H-1,2,4-triazol-1-yl)methyl)benzyl)-4-methyl-1,4-diazepane] |  |  | < 50

Other lines, results leading:

IC50 [1, 3] [µM] | Kd [2] [µM] | IC50 [1, 4] [µM] | SMILES
 |  | < 50 | CN1CCCN(Cc2ccc(N3CCCC3=O)cc2)CC1 [Example 144, 1-(4-((4-methyl-1,4-diazepan-1-yl)methyl)phenyl)pyrrolidin-2-one]
 |  | < 50 | CN1CCCN(Cc2ccc(N3CCS(=O)(=O)CC3)cc2)CC1 [Example 145, 4-(4-((4-methyl-1,4-diazepan-1-yl)methyl)phenyl)thiomorpholine 1,1-dioxide]
 |  | < 50 | C=CCN1CCN(Cc2ccc(CN3CCCN(C)CC3)cc2)CC1 [Example 146, 1-(4-((4-allylpiperazin-1-yl)methyl)benzyl)-4-methyl-1,4-diazepane]
 |  | < 50 | CN1CCCN(Cc2ccc(CN3CCN(CCO)CC3)cc2)CC1 [Example 147, 2-(4-(4-((4-methyl-1,4-diazepan-1-yl)methyl)benzyl)piperazin-1-yl)ethanol]
 |  | < 50 | CN1CCC(N2CCN(Cc3ccc(CN4CCCN(C)CC4)cc3)CC2)CC1 [Example 149, 1-methyl-4-(4-((4-(1-methylpiperidin-4-yl)piperazin-1-yl)methyl)benzyl)-1,4-diazepane]
 |  | < 50 | CN1CCCN(Cc2ccc(CN3CC[C@@H](O)C3)cc2)CC1 [Example 150, (R)-1-(4-((4-methyl-1,4-diazepan-1-yl)methyl)benzyl)pyrrolidin-3-ol]
 |  | < 50 | COc1ccc(NCc2ccc(CN3CCCN(C)CC3)cc2)cc1 [Example 151, 4-methoxy-N-(4-((4-methyl-1,4-diazepan-1-yl)methyl)benzyl)aniline]
 |  | < 50 | CN1CCCN(Cc2ccc(CCCCc3ccc(CN4CCCN(C)CC4)cc3)cc2)CC1 [Example 154, 1,4-bis(4-((4-methyl-1,4-diazepan-1-yl)methyl)phenyl)butane]
< 0.5 |  |  | CN1CCCN(Cc2ccc(-c3ccc(CN4CCCN(C)CC4)c(C#N)c3)cc2)CC1 [Example 155, 4,4′-bis((4-methyl-1,4-diazepan-1-yl)methyl)-[1,1′-biphenyl]-3-carbonitrile]
< 2 |  |  | COC(=O)c1ccc(-c2ccc(CN3CCCN(C)CC3)cc2C#N)c(Br)c1 [Example 156, methyl 2-bromo-2′-cyano-4′-((4-methyl-1,4-diazepan-1-yl)methyl)-[1,1′-biphenyl]-4-carboxylate]
< 50 |  |  | CN1CCCN(Cc2ccc(-c3ccc(C(=O)O)cc3Br)c(C#N)c2)CC1 [Example 157, 2-bromo-2′-cyano-4′-((4-methyl-1,4-diazepan-1-yl)methyl)-[1,1′-biphenyl]-4-carboxylic acid]
 |  | < 50 | CN1CCCN(Cc2ccc(-c3ccc(C(=O)O)cc3)cc2)CC1 [Example 159, 4′-((4-methyl-1,4-diazepan-1-yl)methyl)-[1,1′-biphenyl]-4-carboxylic acid]
 |  | < 50 | CN1CCCN(Cc2ccc(-c3ccc(CC(=O)O)cc3)cc2)CC1 [Example 160, 2-(4′-((4-methyl-1,4-diazepan-1-yl)methyl)-[1,1′-biphenyl]-4-yl)acetic acid]
